# From PubChem BioAssay (NCI)
# Where “and” joins values, the source holds several entries; their conditions need not be identical. Equal values may be shown once.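 Following 48 hours of exposure in 96-well plates, responses at five concentrations were used to interpolate endpoints linearly. GI50 is the concentration that inhibits growth by half. The concentration for full growth arrest is given as TGI.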
# Columns and labels:
# Assay in all cases: growth of human tumour cells (NCI), 48 h
# ACHN renal = system: ACHN renal
# COLO 205 colon = system: COLO 205 colon
# HCC-2998 colon = system: HCC-2998 colon
# HS 578T breast = system: HS 578T breast
# K-562 leukemia = system: K-562 leukemia
# MALME-3M melanoma = system: MALME-3M melanoma
# OVCAR-4 ovarian = system: OVCAR-4 ovarian
# SF-539 CNS = system: SF-539 CNS
# SK-OV-3 ovarian = system: SK-OV-3 ovarian
# TK-10 renal = system: TK-10 renal
SMILES,GI50 (ACHN renal),TGI (ACHN renal),TGI (COLO 205 colon),GI50 (HCC-2998 colon),TGI (HCC-2998 colon),TGI (HS 578T breast),GI50 (K-562 leukemia),GI50 (MALME-3M melanoma),TGI (MALME-3M melanoma),GI50 (OVCAR-4 ovarian),TGI (OVCAR-4 ovarian),GI50 (SF-539 CNS),TGI (SF-539 CNS),TGI (SK-OV-3 ovarian),GI50 (TK-10 renal),TGI (TK-10 renal),GI50 (COLO 205 colon),GI50 (HS 578T breast),TGI (K-562 leukemia),GI50 (SK-OV-3 ovarian)
Cc1cc(NC(=O)NC(=O)c2ccccc2NC(=O)CN)ccc1Oc1ncc(Br)cn1,5.25 µM,40.7 µM and 80.3 µM,2.24 µM,0.354 µM,18 µM and 2.68 µM,4.69 µM,0.0285 µM,< 0.01 µM,75 µM and 89.6 µM,17 µM,45.4 µM and > 100 µM,0.0762 µM and 0.0509 µM,0.351 µM and 0.481 µM,35.8 µM and 13.9 µM,3.73 µM,36.4 µM and 25.3 µM,–,–,–,–
COc1ccc(-n2c(C)nc3c(c(C)nn3-c3ccccc3)c2=O)cc1,0.0645 µM,> 100 µM,1.93 µM,0.191 µM,> 100 µM,> 100 µM,0.0356 µM,15.9 µM,> 100 µM,1.11 µM,> 100 µM,0.0471 µM,–,> 100 µM,9.02 µM,> 100 µM,0.12 µM,0.0528 µM,> 68.1 µM,1.08 µM
CO/N=C(/COc1c(-c2ccccc2)oc2ccccc2c1=O)c1ccc(F)cc1,31.8 µM,> 100 µM,> 100 µM,> 100 µM,> 100 µM,> 100 µM,> 100 µM,52.9 µM,> 100 µM,25.9 µM,71.4 µM,85.6 µM,> 100 µM,> 100 µM,27.2 µM,95.7 µM,> 100 µM,30.2 µM,> 100 µM,62.4 µM
CC1(C)Cc2c(Br)c(Br)c(Br)c(OCC(O)CN3CCOCC3)c2O1 (stereo not given),15.1 µM,28.7 µM,27 µM,14.1 µM,28.8 µM,47.4 µM,3.1 µM,15 µM,32.7 µM,19.3 µM,> 100 µM,12.5 µM,26 µM,29.6 µM,14.5 µM,30 µM,13.4 µM,17.2 µM,14.3 µM,15.9 µM
COc1ccc(-c2ccccc2)cc1-c1c(Nc2cc(Cl)cc(Cl)c2O)c(=O)c1=O,1.5 µM,> 50 µM,44.8 µM,1.78 µM,> 50 µM,4.55 µM,1.59 µM,1.19 µM,3.5 µM,1.59 µM,> 50 µM,1.59 µM,> 50 µM,4.25 µM,2.84 µM,> 50 µM,1.9 µM,1.25 µM,> 50 µM,1.28 µM
COc1ccc2c(c1)C(=O)c1c-2n(CCCN2CCOCC2)c(=O)c2cc([N+](=O)[O-])ccc12,< 0.01 µM,< 0.0108 µM,> 45.4 µM,< 0.01 µM,0.153 µM,22.3 µM,< 0.01 µM,< 0.0117 µM,0.779 µM,< 0.0264 µM,6.55 µM,< 0.01 µM,< 0.01 µM,14.5 µM,0.0623 µM,17.7 µM,< 0.0111 µM,0.719 µM,> 37 µM,< 0.01 µM
COc1cc2c(cc1OC)-c1c(c3ccc([N+](=O)[O-])cc3c(=O)n1CCCN)C2=O,0.242 µM,4.04 µM,8.85 µM,0.0818 µM,0.759 µM,20.2 µM,0.955 µM,5.31 µM,16.4 µM,1.07 µM,2.72 µM,0.124 µM,1.29 µM,20.2 µM,7.24 µM,17.1 µM,1.83 µM,9.12 µM,2.65 µM,8.81 µM
Cc1ccc(C[P+](c2ccccc2)(c2ccccc2)c2ccccc2)cc1,5.94 µM,> 74.9 µM,6.7 µM,0.441 µM,6.41 µM,3.11 µM,0.574 µM,0.428 µM,14.5 µM,0.768 µM,> 100 µM,2.15 µM,> 46.4 µM,> 26.6 µM,1.71 µM,23.4 µM,0.74 µM,0.366 µM,> 24.6 µM,2.57 µM
COc1ccc(C(=O)CC(c2ccc(OC)c(OC)c2)c2c(O)c3ccccc3oc2=O)cc1OC (stereo not given),–,> 100 µM,> 100 µM,–,> 100 µM,> 100 µM,–,–,> 100 µM,–,> 100 µM,–,> 100 µM,> 100 µM,–,> 100 µM,–,–,> 100 µM,–
COc1cc(/C=C2\C(=O)Nc3ccccc32)cc(OC)c1OC,26.4 µM,> 100 µM,47.9 µM,12.4 µM,32.8 µM,> 100 µM,4.48 µM,67 µM,> 100 µM,22.1 µM,> 100 µM,27.9 µM,> 100 µM,> 100 µM,29.4 µM,> 100 µM,14.5 µM,28.7 µM,> 100 µM,26.1 µM
Cc1cc(N=C2C=C(Nc3cc(C)on3)C(=O)c3ccccc32)no1,–,> 100 µM,> 88.3 µM,–,> 100 µM,> 100 µM,–,–,53 µM,–,> 100 µM,–,> 59.7 µM,> 100 µM,–,> 100 µM,–,–,> 100 µM,–
CN1CCC(n2[nH]c(-c3ccccc3)c(Cc3ccccc3)c2=O)CC1,–,> 100 µM,> 100 µM,–,> 100 µM,> 100 µM,–,–,> 100 µM,–,> 100 µM,–,> 100 µM,> 100 µM,–,> 100 µM,–,–,> 100 µM,–
